From the NIST ThermoML archive (doi:10.1016/j.jct.2005.04.015)
Numbers after ± are expanded uncertainties.

Assay: excess molar enthalpy (molar enthalpy of mixing); xn = mol fraction of the nth substance listed
Conditions: Liquid, Flow calorimetry
[1] = 308.15 K, 10000 kPa, x1 = 0.0487
[2] = 308.15 K, 10000 kPa, x1 = 0.1511
[3] = 308.15 K, 10000 kPa, x1 = 0.1988
[4] = 308.15 K, 10000 kPa, x1 = 0.2492
[5] = 308.15 K, 10000 kPa, x1 = 0.2993
[6] = 308.15 K, 10000 kPa, x1 = 0.349
[7] = 308.15 K, 10000 kPa, x1 = 0.4013
[8] = 308.15 K, 10000 kPa, x1 = 0.4504
[9] = 308.15 K, 10000 kPa, x1 = 0.4992
[10] = 308.15 K, 10000 kPa, x1 = 0.5505
[11] = 308.15 K, 10000 kPa, x1 = 0.5987
[12] = 308.15 K, 10000 kPa, x1 = 0.6996
[13] = 308.15 K, 10000 kPa, x1 = 0.7496
[14] = 308.15 K, 10000 kPa, x1 = 0.7993
[15] = 308.15 K, 10000 kPa, x1 = 0.8513
[16] = 308.15 K, 10000 kPa, x1 = 0.9003
[17] = 308.15 K, 10000 kPa, x1 = 0.949

CCOC=O [ethyl methanoate] + CC(C)O
excess molar enthalpy (298.15 K, 5000 kPa, x1 = 0.0498): 0.0806 ± 0.00177 kcal/mol | excess molar enthalpy (298.15 K, 5000 kPa, x1 = 0.0993): 0.158 ± 0.00335 kcal/mol | excess molar enthalpy (298.15 K, 5000 kPa, x1 = 0.1485): 0.221 ± 0.00478 kcal/mol | excess molar enthalpy (298.15 K, 5000 kPa, x1 = 0.2008): 0.276 ± 0.00598 kcal/mol | excess molar enthalpy (298.15 K, 5000 kPa, x1 = 0.2493): 0.317 ± 0.00669 kcal/mol | excess molar enthalpy (298.15 K, 5000 kPa, x1 = 0.3009): 0.35 ± 0.00741 kcal/mol | excess molar enthalpy (298.15 K, 5000 kPa, x1 = 0.3488): 0.373 ± 0.00789 kcal/mol | excess molar enthalpy (298.15 K, 5000 kPa, x1 = 0.3997): 0.391 ± 0.00837 kcal/mol | excess molar enthalpy (298.15 K, 5000 kPa, x1 = 0.4503): 0.4 ± 0.0086 kcal/mol | excess molar enthalpy (298.15 K, 5000 kPa, x1 = 0.5005): 0.403 ± 0.0086 kcal/mol | excess molar enthalpy (298.15 K, 5000 kPa, x1 = 0.5504): 0.398 ± 0.0086 kcal/mol | excess molar enthalpy (298.15 K, 5000 kPa, x1 = 0.5999): 0.389 ± 0.00837 kcal/mol | excess molar enthalpy (298.15 K, 5000 kPa, x1 = 0.6492): 0.372 ± 0.00789 kcal/mol | excess molar enthalpy (298.15 K, 5000 kPa, x1 = 0.7013): 0.344 ± 0.00741 kcal/mol | excess molar enthalpy (298.15 K, 5000 kPa, x1 = 0.7498): 0.311 ± 0.00669 kcal/mol | excess molar enthalpy (298.15 K, 5000 kPa, x1 = 0.8012): 0.267 ± 0.00574 kcal/mol | excess molar enthalpy (298.15 K, 5000 kPa, x1 = 0.8997): 0.156 ± 0.00335 kcal/mol | excess molar enthalpy (298.15 K, 5000 kPa, x1 = 0.95): 0.0857 ± 0.00189 kcal/mol | excess molar enthalpy (298.15 K, 10000 kPa, x1 = 0.0497): 0.0741 ± 0.00163 kcal/mol | excess molar enthalpy (298.15 K, 10000 kPa, x1 = 0.099): 0.152 ± 0.00335 kcal/mol | excess molar enthalpy (298.15 K, 10000 kPa, x1 = 0.1516): 0.218 ± 0.00478 kcal/mol | excess molar enthalpy (298.15 K, 10000 kPa, x1 = 0.2003): 0.271 ± 0.00574 kcal/mol | excess molar enthalpy (298.15 K, 10000 kPa, x1 = 0.2487): 0.311 ± 0.00669 kcal/mol | excess molar enthalpy (298.15 K, 10000 kPa, x1 = 0.3002): 0.345 ± 0.00741 kcal/mol | excess molar enthalpy (298.15 K, 10000 kPa, x1 = 0.3514): 0.368 ± 0.00789 kcal/mol | excess molar enthalpy (298.15 K, 10000 kPa, x1 = 0.3989): 0.383 ± 0.00813 kcal/mol | excess molar enthalpy (298.15 K, 10000 kPa, x1 = 0.4495): 0.393 ± 0.00837 kcal/mol | excess molar enthalpy (298.15 K, 10000 kPa, x1 = 0.4997): 0.396 ± 0.00837 kcal/mol | excess molar enthalpy (298.15 K, 10000 kPa, x1 = 0.5496): 0.393 ± 0.00837 kcal/mol | excess molar enthalpy (298.15 K, 10000 kPa, x1 = 0.5991): 0.384 ± 0.00813 kcal/mol | excess molar enthalpy (298.15 K, 10000 kPa, x1 = 0.6484): 0.368 ± 0.00789 kcal/mol | excess molar enthalpy (298.15 K, 10000 kPa, x1 = 0.7006): 0.34 ± 0.00717 kcal/mol | excess molar enthalpy (298.15 K, 10000 kPa, x1 = 0.7492): 0.31 ± 0.00669 kcal/mol | excess molar enthalpy (298.15 K, 10000 kPa, x1 = 0.8006): 0.265 ± 0.00574 kcal/mol | excess molar enthalpy (298.15 K, 10000 kPa, x1 = 0.8994): 0.157 ± 0.00335 kcal/mol | excess molar enthalpy (298.15 K, 10000 kPa, x1 = 0.9499): 0.0864 ± 0.00189 kcal/mol | excess molar enthalpy [1]: 0.0511 ± 0.00115 kcal/mol | excess molar enthalpy (308.15 K, 10000 kPa, x1 = 0.1): 0.139 ± 0.00311 kcal/mol | excess molar enthalpy [2]: 0.211 ± 0.00454 kcal/mol | excess molar enthalpy [3]: 0.267 ± 0.00574 kcal/mol | excess molar enthalpy [4]: 0.313 ± 0.00669 kcal/mol | excess molar enthalpy [5]: 0.351 ± 0.00741 kcal/mol | excess molar enthalpy [6]: 0.378 ± 0.00813 kcal/mol | excess molar enthalpy [7]: 0.398 ± 0.0086 kcal/mol | excess molar enthalpy [8]: 0.409 ± 0.00884 kcal/mol | excess molar enthalpy [9]: 0.413 ± 0.00884 kcal/mol | excess molar enthalpy [10]: 0.409 ± 0.00884 kcal/mol | excess molar enthalpy [11]: 0.399 ± 0.0086 kcal/mol | excess molar enthalpy [12]: 0.353 ± 0.00765 kcal/mol | excess molar enthalpy [13]: 0.319 ± 0.00693 kcal/mol | excess molar enthalpy [14]: 0.278 ± 0.00598 kcal/mol | excess molar enthalpy [15]: 0.226 ± 0.00478 kcal/mol | excess molar enthalpy [16]: 0.163 ± 0.00359 kcal/mol | excess molar enthalpy [17]: 0.0911 ± 0.00198 kcal/mol

CCOC=O [ethyl methanoate] + CCCO
excess molar enthalpy (298.15 K, 5000 kPa, x1 = 0.0488): 0.0707 ± 0.00155 kcal/mol | excess molar enthalpy (298.15 K, 5000 kPa, x1 = 0.1003): 0.15 ± 0.00335 kcal/mol | excess molar enthalpy (298.15 K, 5000 kPa, x1 = 0.1515): 0.212 ± 0.00454 kcal/mol | excess molar enthalpy (298.15 K, 5000 kPa, x1 = 0.1993): 0.258 ± 0.0055 kcal/mol | excess molar enthalpy (298.15 K, 5000 kPa, x1 = 0.2498): 0.297 ± 0.00645 kcal/mol | excess molar enthalpy (298.15 K, 5000 kPa, x1 = 0.3): 0.324 ± 0.00693 kcal/mol | excess molar enthalpy (298.15 K, 5000 kPa, x1 = 0.3498): 0.344 ± 0.00741 kcal/mol | excess molar enthalpy (298.15 K, 5000 kPa, x1 = 0.3992): 0.359 ± 0.00765 kcal/mol | excess molar enthalpy (298.15 K, 5000 kPa, x1 = 0.4512): 0.363 ± 0.00789 kcal/mol | excess molar enthalpy (298.15 K, 5000 kPa, x1 = 0.5): 0.361 ± 0.00765 kcal/mol | excess molar enthalpy (298.15 K, 5000 kPa, x1 = 0.5513): 0.353 ± 0.00765 kcal/mol | excess molar enthalpy (298.15 K, 5000 kPa, x1 = 0.5995): 0.341 ± 0.00717 kcal/mol | excess molar enthalpy (298.15 K, 5000 kPa, x1 = 0.6501): 0.323 ± 0.00693 kcal/mol | excess molar enthalpy (298.15 K, 5000 kPa, x1 = 0.7003): 0.297 ± 0.00645 kcal/mol | excess molar enthalpy (298.15 K, 5000 kPa, x1 = 0.7502): 0.265 ± 0.00574 kcal/mol | excess molar enthalpy (298.15 K, 5000 kPa, x1 = 0.7998): 0.225 ± 0.00478 kcal/mol | excess molar enthalpy (298.15 K, 5000 kPa, x1 = 0.849): 0.181 ± 0.00382 kcal/mol | excess molar enthalpy (298.15 K, 5000 kPa, x1 = 0.9006): 0.124 ± 0.00263 kcal/mol | excess molar enthalpy (298.15 K, 5000 kPa, x1 = 0.9491): 0.0666 ± 0.00148 kcal/mol | excess molar enthalpy (298.15 K, 10000 kPa, x1 = 0.0487): 0.0792 ± 0.00174 kcal/mol | excess molar enthalpy (298.15 K, 10000 kPa, x1 = 0.1): 0.158 ± 0.00335 kcal/mol | excess molar enthalpy (298.15 K, 10000 kPa, x1 = 0.1511): 0.22 ± 0.00478 kcal/mol | excess molar enthalpy (298.15 K, 10000 kPa, x1 = 0.1988): 0.266 ± 0.00574 kcal/mol | excess molar enthalpy (298.15 K, 10000 kPa, x1 = 0.2492): 0.303 ± 0.00645 kcal/mol | excess molar enthalpy (298.15 K, 10000 kPa, x1 = 0.2993): 0.331 ± 0.00717 kcal/mol | excess molar enthalpy (298.15 K, 10000 kPa, x1 = 0.349): 0.35 ± 0.00741 kcal/mol | excess molar enthalpy (298.15 K, 10000 kPa, x1 = 0.4013): 0.363 ± 0.00789 kcal/mol | excess molar enthalpy (298.15 K, 10000 kPa, x1 = 0.4504): 0.37 ± 0.00789 kcal/mol | excess molar enthalpy (298.15 K, 10000 kPa, x1 = 0.4992): 0.368 ± 0.00789 kcal/mol | excess molar enthalpy (298.15 K, 10000 kPa, x1 = 0.5505): 0.361 ± 0.00765 kcal/mol | excess molar enthalpy (298.15 K, 10000 kPa, x1 = 0.5987): 0.348 ± 0.00741 kcal/mol | excess molar enthalpy (298.15 K, 10000 kPa, x1 = 0.6493): 0.329 ± 0.00693 kcal/mol | excess molar enthalpy (298.15 K, 10000 kPa, x1 = 0.6996): 0.302 ± 0.00645 kcal/mol | excess molar enthalpy (298.15 K, 10000 kPa, x1 = 0.7496): 0.27 ± 0.00574 kcal/mol | excess molar enthalpy (298.15 K, 10000 kPa, x1 = 0.7993): 0.232 ± 0.00502 kcal/mol | excess molar enthalpy (298.15 K, 10000 kPa, x1 = 0.8513): 0.184 ± 0.00406 kcal/mol | excess molar enthalpy (298.15 K, 10000 kPa, x1 = 0.9003): 0.132 ± 0.00287 kcal/mol | excess molar enthalpy (298.15 K, 10000 kPa, x1 = 0.949): 0.072 ± 0.0016 kcal/mol | excess molar enthalpy [1]: 0.0703 ± 0.00155 kcal/mol | excess molar enthalpy [2]: 0.221 ± 0.00478 kcal/mol | excess molar enthalpy [3]: 0.269 ± 0.00574 kcal/mol | excess molar enthalpy [4]: 0.309 ± 0.00669 kcal/mol | excess molar enthalpy [5]: 0.34 ± 0.00717 kcal/mol | excess molar enthalpy [6]: 0.361 ± 0.00765 kcal/mol | excess molar enthalpy [7]: 0.376 ± 0.00813 kcal/mol | excess molar enthalpy [8]: 0.383 ± 0.00813 kcal/mol | excess molar enthalpy [9]: 0.382 ± 0.00813 kcal/mol | excess molar enthalpy [10]: 0.374 ± 0.00789 kcal/mol | excess molar enthalpy [11]: 0.359 ± 0.00765 kcal/mol | excess molar enthalpy (308.15 K, 10000 kPa, x1 = 0.6493): 0.337 ± 0.00717 kcal/mol | excess molar enthalpy [12]: 0.311 ± 0.00669 kcal/mol | excess molar enthalpy [13]: 0.276 ± 0.00598 kcal/mol | excess molar enthalpy [14]: 0.234 ± 0.00502 kcal/mol | excess molar enthalpy [15]: 0.185 ± 0.00406 kcal/mol | excess molar enthalpy [16]: 0.134 ± 0.00287 kcal/mol | excess molar enthalpy [17]: 0.0643 ± 0.00143 kcal/mol
